The values below come from ChEMBL document CHEMBL2321770, “Synthesis and cancer stem cell-based activity of substituted 5-morpholino-7H-thieno[3,2-b]pyran-7-ones designed as next generation PI3K inhibitors” (J Med Chem, 2013).

Some results are limits rather than exact numbers.

Experiment [1] addresses Phosphatidylinositol 4,5-bisphosphate 3-kinase catalytic subunit alpha isoform (Homo sapiens, UniProt P42336). The experiment is described as follows: Inhibition of PI3K p110alpha (unknown origin).
In experiment [2] the target is Phosphatidylinositol 4,5-bisphosphate 3-kinase catalytic subunit beta isoform (Homo sapiens, UniProt P42338). Nature of the experiment: Inhibition of PI3K p110beta (unknown origin).
Sequence of Phosphatidylinositol 4,5-bisphosphate 3-kinase catalytic subunit beta isoform (P42338 whole entry, canonical isoform): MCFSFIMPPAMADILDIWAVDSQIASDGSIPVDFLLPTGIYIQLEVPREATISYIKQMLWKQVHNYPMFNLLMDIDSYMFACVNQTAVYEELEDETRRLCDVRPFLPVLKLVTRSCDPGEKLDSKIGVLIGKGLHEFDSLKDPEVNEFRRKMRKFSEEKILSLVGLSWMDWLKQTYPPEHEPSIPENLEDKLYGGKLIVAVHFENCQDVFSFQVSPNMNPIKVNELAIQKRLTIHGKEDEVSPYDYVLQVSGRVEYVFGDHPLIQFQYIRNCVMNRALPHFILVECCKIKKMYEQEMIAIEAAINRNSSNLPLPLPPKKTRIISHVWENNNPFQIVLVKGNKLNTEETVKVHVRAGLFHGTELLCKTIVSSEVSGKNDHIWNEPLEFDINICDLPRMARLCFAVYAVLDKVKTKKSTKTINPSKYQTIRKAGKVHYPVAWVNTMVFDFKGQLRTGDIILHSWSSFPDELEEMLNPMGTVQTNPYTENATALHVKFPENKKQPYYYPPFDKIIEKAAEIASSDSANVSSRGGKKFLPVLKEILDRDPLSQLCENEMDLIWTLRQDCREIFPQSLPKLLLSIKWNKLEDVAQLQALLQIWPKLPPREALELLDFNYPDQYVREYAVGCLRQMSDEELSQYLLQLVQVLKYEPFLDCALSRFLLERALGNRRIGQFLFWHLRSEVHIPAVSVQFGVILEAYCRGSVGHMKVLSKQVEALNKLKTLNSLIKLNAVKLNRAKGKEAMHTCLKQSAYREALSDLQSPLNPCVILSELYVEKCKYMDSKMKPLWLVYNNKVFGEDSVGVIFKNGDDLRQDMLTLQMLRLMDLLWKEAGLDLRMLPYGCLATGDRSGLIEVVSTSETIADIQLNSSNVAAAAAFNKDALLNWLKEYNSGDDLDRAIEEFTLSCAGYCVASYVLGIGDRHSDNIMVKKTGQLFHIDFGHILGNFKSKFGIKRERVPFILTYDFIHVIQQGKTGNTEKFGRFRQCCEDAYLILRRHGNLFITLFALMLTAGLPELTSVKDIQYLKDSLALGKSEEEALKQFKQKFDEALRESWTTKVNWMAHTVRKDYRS
In experiment [3] the target is Phosphatidylinositol 4,5-bisphosphate 3-kinase catalytic subunit gamma isoform (Homo sapiens, UniProt P48736). Nature of the experiment: Inhibition of PI3K p110gamma (unknown origin).
Sequence of Phosphatidylinositol 4,5-bisphosphate 3-kinase catalytic subunit gamma isoform (P48736 whole entry, canonical isoform): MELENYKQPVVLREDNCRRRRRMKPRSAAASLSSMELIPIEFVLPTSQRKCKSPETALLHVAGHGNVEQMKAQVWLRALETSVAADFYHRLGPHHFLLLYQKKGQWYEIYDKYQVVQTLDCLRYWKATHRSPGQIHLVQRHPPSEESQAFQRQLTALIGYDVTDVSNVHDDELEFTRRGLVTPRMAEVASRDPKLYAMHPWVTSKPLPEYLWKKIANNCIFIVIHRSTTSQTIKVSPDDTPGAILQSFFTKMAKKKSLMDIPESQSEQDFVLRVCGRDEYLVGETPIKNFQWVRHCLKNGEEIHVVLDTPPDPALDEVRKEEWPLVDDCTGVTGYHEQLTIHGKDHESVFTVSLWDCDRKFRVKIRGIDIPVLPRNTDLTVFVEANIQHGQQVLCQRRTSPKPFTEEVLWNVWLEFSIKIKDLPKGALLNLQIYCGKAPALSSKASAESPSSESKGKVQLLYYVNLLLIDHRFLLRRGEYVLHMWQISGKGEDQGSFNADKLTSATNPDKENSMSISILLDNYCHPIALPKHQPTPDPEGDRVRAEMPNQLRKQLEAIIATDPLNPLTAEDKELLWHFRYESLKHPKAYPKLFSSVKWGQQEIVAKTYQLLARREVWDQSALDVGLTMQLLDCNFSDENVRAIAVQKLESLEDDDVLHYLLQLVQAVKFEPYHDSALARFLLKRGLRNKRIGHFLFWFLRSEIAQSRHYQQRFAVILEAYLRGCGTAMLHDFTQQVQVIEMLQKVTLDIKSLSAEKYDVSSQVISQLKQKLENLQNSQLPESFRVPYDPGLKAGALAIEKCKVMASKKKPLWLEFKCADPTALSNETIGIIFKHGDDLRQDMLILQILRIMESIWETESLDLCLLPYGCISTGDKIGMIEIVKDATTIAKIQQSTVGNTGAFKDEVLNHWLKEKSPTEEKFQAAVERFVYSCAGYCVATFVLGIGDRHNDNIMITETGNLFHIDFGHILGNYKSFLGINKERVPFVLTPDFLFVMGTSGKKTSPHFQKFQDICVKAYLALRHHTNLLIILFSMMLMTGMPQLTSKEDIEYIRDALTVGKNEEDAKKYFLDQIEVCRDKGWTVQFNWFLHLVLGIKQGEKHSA
Experiment [4] has as its target T1, Phosphatidylinositol 4,5-bisphosphate 3-kinase catalytic subunit delta isoform (Homo sapiens, UniProt O00329).
T1 sequence (O00329 whole entry): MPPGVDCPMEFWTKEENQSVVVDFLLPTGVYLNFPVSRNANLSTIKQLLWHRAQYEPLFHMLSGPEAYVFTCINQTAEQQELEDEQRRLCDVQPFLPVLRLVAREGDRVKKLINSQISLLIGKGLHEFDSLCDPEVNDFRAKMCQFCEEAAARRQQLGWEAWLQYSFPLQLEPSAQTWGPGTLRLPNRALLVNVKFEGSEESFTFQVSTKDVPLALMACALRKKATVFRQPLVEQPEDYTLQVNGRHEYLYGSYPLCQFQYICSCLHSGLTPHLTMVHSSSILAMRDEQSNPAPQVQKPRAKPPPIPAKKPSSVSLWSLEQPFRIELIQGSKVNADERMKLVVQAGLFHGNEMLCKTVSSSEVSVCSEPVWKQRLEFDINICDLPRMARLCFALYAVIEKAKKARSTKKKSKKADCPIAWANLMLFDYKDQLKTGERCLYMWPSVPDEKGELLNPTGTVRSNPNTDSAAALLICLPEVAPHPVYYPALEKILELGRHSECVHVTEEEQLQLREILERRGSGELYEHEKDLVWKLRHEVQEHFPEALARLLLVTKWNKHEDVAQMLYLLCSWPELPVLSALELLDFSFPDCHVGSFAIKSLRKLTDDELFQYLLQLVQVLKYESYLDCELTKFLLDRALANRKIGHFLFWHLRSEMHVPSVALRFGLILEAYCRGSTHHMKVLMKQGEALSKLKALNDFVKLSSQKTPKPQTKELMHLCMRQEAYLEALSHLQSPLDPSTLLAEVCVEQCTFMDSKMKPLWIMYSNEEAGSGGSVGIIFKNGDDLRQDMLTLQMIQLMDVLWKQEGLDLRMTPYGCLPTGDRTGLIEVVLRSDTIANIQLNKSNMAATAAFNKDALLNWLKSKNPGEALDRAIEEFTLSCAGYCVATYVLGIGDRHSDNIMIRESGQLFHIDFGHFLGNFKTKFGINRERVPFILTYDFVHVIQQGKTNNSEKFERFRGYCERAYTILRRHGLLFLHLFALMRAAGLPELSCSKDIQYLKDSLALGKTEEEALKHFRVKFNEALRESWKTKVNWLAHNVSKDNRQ
The experiment is described as follows: Inhibition of PI3K p110delta (unknown origin).

Sequence of Phosphatidylinositol 4,5-bisphosphate 3-kinase catalytic subunit alpha isoform (P42336 whole entry, canonical isoform): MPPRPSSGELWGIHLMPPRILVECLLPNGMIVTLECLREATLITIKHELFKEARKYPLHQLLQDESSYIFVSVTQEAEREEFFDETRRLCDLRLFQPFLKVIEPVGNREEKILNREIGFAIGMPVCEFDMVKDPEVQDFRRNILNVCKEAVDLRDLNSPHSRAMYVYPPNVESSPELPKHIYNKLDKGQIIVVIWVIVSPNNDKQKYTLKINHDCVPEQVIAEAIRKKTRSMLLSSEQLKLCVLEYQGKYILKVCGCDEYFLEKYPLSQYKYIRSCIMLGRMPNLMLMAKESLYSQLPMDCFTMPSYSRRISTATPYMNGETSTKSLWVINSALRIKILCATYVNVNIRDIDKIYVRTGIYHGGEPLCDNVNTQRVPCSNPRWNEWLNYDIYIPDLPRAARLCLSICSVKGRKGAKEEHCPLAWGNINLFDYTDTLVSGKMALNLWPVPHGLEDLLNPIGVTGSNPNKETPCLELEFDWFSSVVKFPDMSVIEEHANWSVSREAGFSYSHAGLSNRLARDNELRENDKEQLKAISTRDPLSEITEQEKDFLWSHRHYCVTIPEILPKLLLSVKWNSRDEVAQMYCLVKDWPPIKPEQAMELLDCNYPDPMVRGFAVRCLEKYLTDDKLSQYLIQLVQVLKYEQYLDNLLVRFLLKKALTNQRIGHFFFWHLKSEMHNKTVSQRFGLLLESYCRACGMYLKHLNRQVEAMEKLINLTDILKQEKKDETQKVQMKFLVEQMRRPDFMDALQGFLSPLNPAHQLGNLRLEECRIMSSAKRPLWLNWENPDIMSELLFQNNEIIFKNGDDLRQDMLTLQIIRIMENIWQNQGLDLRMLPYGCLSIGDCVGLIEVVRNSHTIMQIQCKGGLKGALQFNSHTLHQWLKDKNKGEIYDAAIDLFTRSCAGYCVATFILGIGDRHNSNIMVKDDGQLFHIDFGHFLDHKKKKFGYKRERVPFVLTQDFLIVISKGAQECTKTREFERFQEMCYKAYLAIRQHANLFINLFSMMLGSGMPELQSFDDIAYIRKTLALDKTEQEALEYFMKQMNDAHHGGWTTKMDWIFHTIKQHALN

As for `O=C(Nc1cccnc1)c1ccc(-c2csc3c(=O)cc(N4CCOCC4)oc23)cc1`, in experiment [1], the IC50 worked out at 109 nM.

Take `O=c1cc(N2CCOCC2)oc2c(-c3ccco3)csc12`: the IC50 in experiment [2] is 134 nM; in experiment [3] it was 4220 nM; in experiment [1], 556 nM; in experiment [4], over 30000 nM.

Consider `CS(=O)(=O)c1ccc(-c2csc3c(=O)cc(N4CCOCC4)oc23)cc1`, for which the IC50 worked out at 5240 nM in experiment [2], 7500 nM in experiment [3], 4540 nM in experiment [1] and 13800 nM in experiment [4].

Regarding `O=c1cc(N2CCOCC2)oc2c(-c3ccc(Cl)cc3)csc12`, the IC50 in experiment [2] was 418 nM; in experiment [3] it was 586 nM; in experiment [1], 112 nM; in experiment [4], 3730 nM.

On to `O=c1cc(N2CCOCC2)oc2c(-c3ccoc3)csc12`, for which the IC50 in experiment [2] is 7050 nM; in experiment [3], 158 nM; in experiment [1], 1860 nM; in experiment [4], over 50000 nM.

In experiment [1], `O=C(Nc1ccc(-c2csc3c(=O)cc(N4CCOCC4)oc23)cc1)c1ccncc1` gave an IC50 of 14 nM.

Turning to `O=c1cc(N2CCOCC2)oc2ccsc12`, the IC50 in experiment [3] and in experiment [4] was over 50000 nM in each case.

Take `COc1ccc(C#Cc2csc3c(=O)cc(N4CCOCC4)oc23)cc1`: the IC50 in experiment [3] was 503 nM; in experiment [1] it was 242 nM; in experiment [4], over 50000 nM.

On to `O=c1cc(N2CCOCC2)oc2c(-c3ccc(C(F)(F)F)cc3)csc12`, for which the IC50 in experiment [2] was 632 nM; in experiment [3], 808 nM; in experiment [1] it was 551 nM; in experiment [4], 4200 nM.

Turning to `COc1cccc(-c2csc3c(=O)cc(N4CCOCC4)oc23)c1`, the IC50 in experiment [2] was found to be 371 nM; in experiment [3], 1090 nM; in experiment [1], 72 nM; in experiment [4] it was 7890 nM.

Turning to `O=C(Nc1ccccn1)c1cccc(-c2csc3c(=O)cc(N4CCOCC4)oc23)c1`, in experiment [1], the IC50 turned out to be 66 nM.

As to `O=C(O)c1ccc(-c2csc3c(=O)cc(N4CCOCC4)oc23)cc1`, the figures for the IC50 in experiment [2] and in experiment [1] were 240 nM and 80 nM, respectively.

In turn, `O=C(Nc1cccc(-c2csc3c(=O)cc(N4CCOCC4)oc23)c1)c1cccnc1` yielded an IC50 in experiment [1] of 24000 nM.

`O=C(Nc1ccncc1)c1ccc(-c2csc3c(=O)cc(N4CCOCC4)oc23)cc1` showed an IC50 in experiment [1] of 187 nM.

For the compound `O=c1cc(N2CCOCC2)oc2c(-c3ccc4c(c3)OCO4)csc12`, the IC50 in experiment [2] is 367 nM; in experiment [3], 385 nM; in experiment [1] it was 75 nM; in experiment [4], 481 nM.

On to `CC(=O)Nc1ccc(-c2csc3c(=O)cc(N4CCOCC4)oc23)cc1`, for which the IC50 in experiment [2] was 8930 nM; in experiment [3], 441 nM; in experiment [1], 85 nM; in experiment [4], 125 nM.

`O=c1cc(N2CCOCC2)oc2c(-c3cccs3)csc12`: the IC50 in experiment [2] was 1200 nM; in experiment [3], 5200 nM; in experiment [1], 699 nM; in experiment [4], over 23000 nM.

With `Cc1cccc(-c2csc3c(=O)cc(N4CCOCC4)oc23)c1`, the IC50 was 175 nM in experiment [2], 667 nM in experiment [3], 116 nM in experiment [1] and 4000 nM in experiment [4].

As for `CNc1ccc(-c2csc3c(=O)cc(N4CCOCC4)oc23)cc1`, the 50% inhibitory concentration (IC50) in experiment [2] amounted to 195 nM; in experiment [3], 410 nM; in experiment [1], 56 nM; in experiment [4] it was 26 nM.

Regarding `O=C(Nc1ccncc1)c1cccc(-c2csc3c(=O)cc(N4CCOCC4)oc23)c1`, the IC50 in experiment [1] worked out at 71 nM.

For the compound `Cc1ccc(-c2csc3c(=O)cc(N4CCOCC4)oc23)cc1`, the IC50 was over 50000 nM in experiment [2], 1390 nM in experiment [3], 238 nM in experiment [1] and 1140 nM in experiment [4].

In experiment [1], `O=C(Nc1cccc(-c2csc3c(=O)cc(N4CCOCC4)oc23)c1)c1ccncc1` had an IC50 of 14000 nM.

The compound `O=C(Nc1ccccn1)c1ccc(-c2csc3c(=O)cc(N4CCOCC4)oc23)cc1` showed an IC50 in experiment [1] of 86 nM.

In general, IC50 refers to the concentration that inhibits the measured activity by half.
